Test results: the supplement of paper PMC10307832

Tests used:
Assay in all cases: relative viability (nuclei count vs DMSO), 5 days (fraction); higher = more cells survive
[1] = compound: CN1C=C(C2=CC=CC=C21)/C=C\3/C4=C(C=CC=N4)NC3=O + NC(=O)Nc1cc(-c2cccc(F)c2)sc1C(=O)N[C@H]1CCCNC1 [AZD7762] (partner 0.2 µM)
Summary of the method: (§1)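 Medians of duplicate plates are given as relative viability. That measure is the nuclei count in treated wells divided by the count in vehicle wells. Counts were taken on 4× images of lung cancer cell lines in 1536-well plates, 5 days after pin-tool dosing the day after seeding with one drug alone or a fixed anchor-drug dose plus five library-drug doses (not always all listed) in √10 steps.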

Trametinib + Pictilisib = compound: CC(=O)Nc1cccc(-n2c(=O)n(C3CC3)c(=O)c3c(Nc4ccc(I)cc4F)n(C)c(=O)c(C)c32)c1 [Trametinib] + CS(=O)(=O)N1CCN(Cc2cc3nc(-c4cccc5[nH]ncc45)nc(N4CCOCC4)c3s2)CC1 [Pictilisib] (partner 1 µM)
Summary of the method: as §1

[2] = compound: CN1C=C(C2=CC=CC=C21)/C=C\3/C4=C(C=CC=N4)NC3=O + CC1(C)CCC(c2ccc(Cl)cc2)=C(CN2CCN(c3ccc(C(=O)NS(=O)(=O)c4ccc(N[C@H](CCN5CCOCC5)CSc5ccccc5)c(S(=O)(=O)C(F)(F)F)c4)cc3)CC2)C1 [Navitoclax] (partner 0.5 µM)
Summary of the method: as §1

[3] = compound: CN1C=C(C2=CC=CC=C21)/C=C\3/C4=C(C=CC=N4)NC3=O + C[C@@H](Oc1cc(-c2cnn(C3CCNCC3)c2)cnc1N)c1c(Cl)ccc(F)c1Cl [Crizotinib] (partner 1 µM)
Summary of the method: as §1

Cell Line	relative viability ([1]; first compound 0.02 µM)	relative viability ([1]; first compound 0.06325 µM)	relative viability ([1]; first compound 0.2 µM)	relative viability ([1]; first compound 0.6325 µM)	relative viability ([1]; first compound 2 µM)	relative viability (Trametinib + Pictilisib; first compound 0.0025 µM)	relative viability (Trametinib + Pictilisib; first compound 0.007906 µM)	relative viability (Trametinib + Pictilisib; first compound 0.025 µM)	relative viability (Trametinib + Pictilisib; first compound 0.07906 µM)	relative viability (Trametinib + Pictilisib; first compound 0.25 µM)	relative viability ([2]; first compound 0.02 µM)	relative viability ([2]; first compound 0.06325 µM)	relative viability ([2]; first compound 0.6325 µM)	relative viability ([2]; first compound 2 µM)	relative viability ([3]; first compound 0.02 µM)	relative viability ([3]; first compound 0.06325 µM)	relative viability ([3]; first compound 0.2 µM)	relative viability ([3]; first compound 0.6325 µM)	relative viability ([3]; first compound 2 µM)	relative viability ([2]; first compound 0.2 µM)
NCI-H1395	0.385	0.374	0.364	0.407	0.403	0.607	0.631	0.576	0.453	0.65	1.08	0.967	1.09	1.11						
NCI-H1563						0.624	0.72	0.652	0.572	0.536					0.871	0.897	0.736	0.893	0.971	
NCI-H1648	0.705	0.502	0.673	0.522	0.816															
NCI-H1650						0.608	0.61	0.448	0.364	0.113	0.901	0.984	0.918	1.19	0.908	0.889	0.856	1.06	1.05	0.927
NCI-H1793	0.431	0.595	0.316	0.387	0.443	0.4	0.314	0.169	0.307	0.232	0.425	0.415	1.05	0.934						0.267
NCI-H2009						0.502	0.366	0.148	0.206	0.208	1.11	1.12	1.24	1.24	0.958	0.97	1.05	1.15	1.14	1.2
NCI-H2023						0.213	0.141	0.137	0.175	0.143	1.06	0.935	1.03	0.996	0.647	0.543	0.606	0.62	0.694	0.961
NCI-H2228						0.281	0.232	0.184	0.171	0.199	1.22	0.796	0.67	0.812	0.386	0.489		0.373	0.425	
NCI-H2342	0.434	0.459	0.393	0.42	0.406															
SK-LU-1						0.535	0.399	0.251	0.278	0.256	0.482	0.812	1	1.23	0.619	0.809	1.14	1.07	1.1	0.802
SK-MES-1						0.282	0.223	0.214	0.171	0.187	0.902	1.04	1.11	1.15	0.972	0.84	1.03	0.976	0.967	1.26
SW 900	0.512			0.555	0.591															
SW 1573						0.357	0.34	0.339	0.308	0.214	1.18	0.861	1.12	0.893	0.727	0.832	0.816	0.712	0.874	1.02
